Test results taken from the supplement of paper PMC10307832.

Columns and labels:
Assay in all cases: relative viability (nuclei count vs DMSO), 5 days (fraction); higher = more cells survive
[1] = compound: C1=CC(=CC=C1C2=CC(=C(S2)NC(=O)N)C(=O)N)F [TPCA-1] + CC(=O)c1c(C)c2cnc(Nc3ccc(N4CCNCC4)cn3)nc2n(C2CCCC2)c1=O [Palbociclib] (partner 0.5 µM)
Method in brief: (§1)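 Five library-drug doses in √10 steps were combined with a fixed anchor-drug dose, or a single drug was given alone, by pin tool to lung cancer cell lines in 1536-well plates the day after seeding. Nuclei were stained and counted after 5 days. Relative viability is the nuclei count in treated wells over that in vehicle wells, taken as the median of duplicate plates.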

[2] = compound: C[C@]12O[C@H](C[C@]1(O)CO)n1c3ccccc3c3c4c(c5c6ccccc6n2c5c31)CNC4=O [Lestaurtinib] + O=C(CCCCCCC(=O)Nc1ccccc1)NO [Vorinostat] (partner 1 µM)
Method in brief: as §1

[3] = compound: C1/C(=C\C2=CC=CS2)/C(=O)/C(=C/C3=CC=CS3)/C1 + C[C@@H](Oc1cc(-c2cnn(C3CCNCC3)c2)cnc1N)c1c(Cl)ccc(F)c1Cl [Crizotinib] (partner 1 µM)
Method in brief: as §1

Cell Line | relative viability ([1]; first compound 0.04 µM) | relative viability ([1]; first compound 0.1265 µM) | relative viability ([1]; first compound 0.4 µM) | relative viability ([1]; first compound 1.265 µM) | relative viability ([1]; first compound 4 µM) | relative viability ([2]; first compound 0.005 µM) | relative viability ([2]; first compound 0.01581 µM) | relative viability ([2]; first compound 0.05 µM) | relative viability ([2]; first compound 0.1581 µM) | relative viability ([2]; first compound 0.5 µM) | relative viability ([3]; first compound 0.2 µM) | relative viability ([3]; first compound 0.6325 µM) | relative viability ([3]; first compound 2 µM) | relative viability ([3]; first compound 6.325 µM) | relative viability ([3]; first compound 20 µM)
COR-L 105 | 0.419 | 0.457 | 0.419 | 0.379 | 0.359 | 0.949 | 0.676 | 0.678 | 0.445 | 0.402 | 0.861 | 1.03 | 0.885 | 0.695 | 0.646
NCI-H1993 | 0.726 | 0.531 | 0.645 | 0.717 | 0.534 | 0.823 | 0.808 | 0.754 | 0.455 | 0.485 | 0.897 | 0.9 | 0.784 | 0.63 | 0.743
NCI-H1437 | 0.302 | 0.288 | 0.3 | 0.35 | 0.3 | 0.819 | 1 | 0.843 | 0.731 | 0.525 | 0.954 | 0.886 | 0.828 | 0.902 | 0.824
NCI-H838 | 0.225 | 0.193 | 0.222 | 0.194 | 0.199 | 0.792 | 0.724 | 0.681 | 0.333 | 0.172 | 0.896 | 0.889 | 0.807 | 0.784 | 0.858
NCI-H1666 | 0.653 | 0.661 | 0.605 | 0.673 | 0.64 | 1.1 | 1.22 | 1.24 | 0.998 | 0.799 | 1.23 | 1.19 | 1.09 | 0.643 | 0.974
NCI-H1944 | 0.354 | 0.336 | 0.293 | 0.319 | 0.225 | 0.556 | 0.521 | 0.693 | 0.408 | 0.205 | 1.18 | 1.12 | 1.09 | 1.01 | 0.977
NCI-H2023 | 0.366 | 0.394 | 0.444 | 0.37 | 0.165 | 0.639 | 0.445 | 0.577 | 0.371 | 0.117 | 0.685 | 0.602 | 0.762 | 0.652 | 0.684
EBC-1 | – | – | – | – | – | – | – | – | – | – | 0.204 | 0.213 | 0.191 | 0.189 | 0.22
NCI-H1755 | 0.457 | 0.454 | 0.459 | 0.431 | 0.399 | 0.654 | 0.74 | 0.674 | 0.397 | 0.356 | 0.867 | 0.896 | 0.822 | 0.704 | 0.831
NCI-H23 | 0.539 | 0.527 | 0.51 | 0.431 | 0.435 | 0.602 | 0.645 | 0.549 | 0.308 | 0.126 | 0.411 | 0.627 | 0.661 | 0.527 | 0.511
ABC-1 | 0.967 | 0.589 | 0.584 | 0.612 | 0.754 | 1.02 | 1.2 | 1.03 | 0.887 | 0.329 | 1.05 | 1.21 | 1.25 | 1.01 | 0.92
